Reference: patent US20070025960A1 (priority 2003, published 2007)

How the values were obtained:
Vγ2/Vδ2 T cells [1] = tested on: Vγ2/Vδ2 T cells
Vγ2/Vδ2 T cells [2] = tested on: Vγ2/Vδ2 T cells; remark: listed apart in the source
γ/δ T cells [3] = details: cited from earlier work
γ/δ T cells [4] = details: in vivo, iv; cited from earlier work

NCCCC(O)(P(=O)(O)O)P(=O)(O)O [Alendronate]
total CD3+ T cells that produced IFNγ (Vγ2/Vδ2 T cells [1]): 5-10% | subset showing intracellular IFNγ (Vγ2/Vδ2 T cells [2]): restricted to the Vγ2/Vδ2 subset

O=P(O)(O)C(O)(Cc1cccnc1)P(=O)(O)O [Risedronate]
activity for stimulating γ/δ T cells (γ/δ T cells [3]): highly active

NCCC(O)(P(=O)(O)O)P(=O)(O)O [pamidronate, Pamidronate]
change in γ/δ T cell count after drug infusion (γ/δ T cells [4]): increase in γ/δ T cell count
